From US20060069132A1, “Azolecarboxamide herbicides” (priority 2004, published 2006)
Where two headings read alike, the source gives them in different places.

Columns and labels:
[1] = test system: Surinam grass; experiment: Test B pre-/postemergence herbicide test; assay type: in vivo, Urochloa decumbens
How it was run: (§1)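 Visual rating, 0 (no effect) to 100 (complete control), versus untreated controls after 13–15 d in greenhouse. Pre- and postemergence applications (postemergence plants 2–18 cm, 1–4 leaves); flooded paddy arm at 2-leaf stage. Compounds in non-phytotoxic solvent plus surfactant.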

[2] = test system: ducksalad; experiment: Test B flooded paddy test; assay type: in vivo, Heteranthera limosa; settings: 1000 g ai/ha, scale 0 to 100 (0 no effect, 100 complete control)
How it was run: (§2)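 Read-out: visual comparison with controls, scored 0 to 100, where 100 means complete control and 0 no effect. Formulated chemicals were applied postemergence to plants 2–18 cm tall (1- to 4-leaf), or to flooded-paddy plants at the 2-leaf stage, then held 13 to 15 days under glass.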

[3] = test system: lambsquarters; experiment: Test B pre-/postemergence herbicide test; assay type: in vivo, Chenopodium album
How it was run: as §1

[4] = test system: wheat; experiment: Test B postemergence herbicide test; assay type: in vivo, Triticum aestivum; design: key to Wheat plant response rating: 0 = no effect, 100 = complete control
How it was run: as §2

[5] = test system: velvetleaf; experiment: Test B pre-/postemergence herbicide test; assay type: in vivo, Abutilon theophrasti
How it was run: as §1

[6] = test system: wild oat; experiment: Test B postemergence herbicide test; assay type: in vivo, Avena fatua
How it was run: as §2

[7] = test system: morningglory; experiment: Test B pre-/postemergence herbicide test; assay type: in vivo, Ipomoea coccinea
How it was run: (§3)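 Pre: seeds sown, then sprayed. Post: 1–4-leaf plants (2–18 cm) sprayed at the same time. Paddy: flooded, treated at 2-leaf stage. Formulation: non-phytotoxic solvent with surfactant. Greenhouse 13–15 days; visual 0–100 score relative to controls.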

[8] = test system: cocklebur; experiment: Test B pre-/postemergence herbicide test; assay type: in vivo, Xanthium strumarium
How it was run: as §3

[9] = test system: giant foxtail; experiment: Test B pre-/postemergence herbicide test; assay type: in vivo, Setaria faberi
How it was run: as §1

[10] = test system: pigweed; experiment: Test B pre-/postemergence herbicide test; assay type: in vivo, Amaranthus retroflexus
How it was run: as §1

[11] = test system: small flower umbrella sedge; experiment: Test B flooded paddy test; assay type: in vivo, Cyperus difformis; settings: 1000 g ai/ha, scale 0 to 100 (0 no effect, 100 complete control)
How it was run: as §2

[12] = test system: barnyardgrass; experiment: Test B flooded paddy test; assay type: in vivo, Echinochloa crus-galli; settings: 1000 g ai/ha, scale 0 to 100 (0 no effect, 100 complete control)
How it was run: as §2

[13] = test system: blackgrass; experiment: Test B postemergence herbicide test; assay type: in vivo, Alopecurus myosuroides
How it was run: as §2

[14] = test system: rice; experiment: Test B flooded paddy test; assay type: in vivo, Oryza sativa; settings: 1000 g ai/ha, scale 0 to 100 (0 no effect, 100 complete control)
How it was run: as §2

[15] = test system: barnyardgrass; experiment: Test B pre-/postemergence herbicide test; assay type: in vivo, Echinochloa crus-galli
How it was run: as §3

[16] = 125 g ai/ha, 0 is no effect, 100 is complete control, preemergence
[17] = 500 g ai/ha, visual rating 0-100, 0 no effect, 100 complete control, preemergence
[18] = postemergence, 125 g ai/ha, visual rating, scale 0 (no effect) to 100 (complete control)
[19] = postemergence, 500 g ai/ha, visual rating, scale 0 (no effect) to 100 (complete control)
[20] = preemergence, 125 g ai/ha, 0 to 100 scale, 0 is no effect, 100 is complete control

SMILES: CCNC(=O)c1ccc(F)c(NC(=O)C2CN(C(C)(C)C)N=C2CC)c1 (centres unmarked) [Compound 336, 1-(1,1-dimethylethyl)-3-ethyl-N-[5-[(ethylamino)carbonyl]-2-fluorophenyl]-4,5-dihydro-1H-pyrazole-4-carboxamide]
- Plant response rating (0 to 100 scale), Surinam Grass [1, 16]: 90
- pest or weed control at 125 g/ha ([1]; Urochloa decumbens, post-emergence, 125 g ai/ha, visual rating, scale 0 (no effect) to 100 (complete control), read-out: Surinam Grass plant response rating): 20%
- pest or weed control at 500 g/ha ([1]; Urochloa decumbens, post-emergence, postemergence, 500 g ai/ha, scale 0 to 100, 0 is no effect, 100 is complete control, read-out: Surinam Grass plant response rating): 20%
- pest or weed control at 500 g/ha ([1]; Urochloa decumbens, pre-emergence, 500 g ai/ha, visual rating, 0 = no effect, 100 = complete control, read-out: Plant response rating, Surinam Grass): 100%
- pest or weed control at 1000 g/ha ([2]; Heteranthera limosa, 336 h, read-out: Ducksalad plant response rating): 90%
- Plant response rating (0 to 100 scale), Lambsquarters [3, 16]: 90
- pest or weed control at 125 g/ha ([3]; Chenopodium album, post-emergence, 336 h, 125 g ai/ha, visual rating, scale 0 (no effect) to 100 (complete control), read-out: Lambsquarters plant response rating): 60%
- pest or weed control at 500 g/ha ([3]; Chenopodium album, post-emergence, 336 h, postemergence, 500 g ai/ha, scale 0 to 100, 0 is no effect, 100 is complete control, read-out: Lambsquarters plant response rating): 90%
- pest or weed control at 500 g/ha ([3]; Chenopodium album, pre-emergence, 336 h, 500 g ai/ha, visual rating, 0 = no effect, 100 = complete control, read-out: Plant response rating, Lambsquarters): 100%
- plant injury at 125 g/ha ([4]; Triticum aestivum, post-emergence, 336 h, 125 g ai/ha, visual rating, scale 0 (no effect) to 100 (complete control), read-out: Wheat plant response rating): 0%
- plant injury at 500 g/ha ([4]; Triticum aestivum, post-emergence, 336 h, postemergence, 500 g ai/ha, scale 0 to 100, 0 is no effect, 100 is complete control, read-out: Wheat plant response rating): 10%
- Plant response rating (0 to 100 scale), Velvetleaf [5, 16]: 30
- pest or weed control at 125 g/ha ([5]; Abutilon theophrasti, post-emergence, 336 h, 125 g ai/ha, visual rating, scale 0 (no effect) to 100 (complete control), read-out: Velvetleaf plant response rating): 20%
- pest or weed control at 500 g/ha ([5]; Abutilon theophrasti, post-emergence, 336 h, postemergence, 500 g ai/ha, scale 0 to 100, 0 is no effect, 100 is complete control, read-out: Velvetleaf plant response rating): 30%
- pest or weed control at 125 g/ha ([6]; Avena fatua, post-emergence, 336 h, 125 g ai/ha, visual rating, scale 0 (no effect) to 100 (complete control), read-out: Oat, Wild plant response rating): 10%
- pest or weed control at 500 g/ha ([6]; Avena fatua, post-emergence, 336 h, postemergence, 500 g ai/ha, scale 0 to 100, 0 is no effect, 100 is complete control, read-out: Oat, Wild plant response rating): 20%
- Plant response rating (0 to 100 scale), Morningglory [7, 16]: 20
- pest or weed control at 125 g/ha ([7]; Ipomoea, post-emergence, 336 h, 125 g ai/ha, visual rating, scale 0 (no effect) to 100 (complete control), read-out: Morningglory plant response rating): 40%
- pest or weed control at 500 g/ha ([7]; Ipomoea, post-emergence, 336 h, postemergence, 500 g ai/ha, scale 0 to 100, 0 is no effect, 100 is complete control, read-out: Morningglory plant response rating): 70%
- pest or weed control at 500 g/ha ([7]; Ipomoea, pre-emergence, 336 h, 500 g ai/ha, visual rating, 0 = no effect, 100 = complete control, read-out: Plant response rating, Morningglory): 70%
- Plant response rating (0 to 100 scale), Cocklebur [8, 16]: 10
- pest or weed control at 125 g/ha ([8]; Xanthium strumarium, post-emergence, 125 g ai/ha, visual rating, scale 0 (no effect) to 100 (complete control), read-out: Cocklebur plant response rating): 0%
- pest or weed control at 500 g/ha ([8]; Xanthium strumarium, post-emergence, postemergence, 500 g ai/ha, scale 0 to 100, 0 is no effect, 100 is complete control, read-out: Cocklebur plant response rating): 50%
- pest or weed control at 500 g/ha ([8]; Xanthium strumarium, pre-emergence, 500 g ai/ha, visual rating, 0 = no effect, 100 = complete control, read-out: Plant response rating, Cocklebur): 40%
- Plant response rating (0 to 100 scale), Foxtail, Giant [9, 16]: 60
- pest or weed control at 125 g/ha ([9]; Setaria faberi, post-emergence, 336 h, 125 g ai/ha, visual rating, scale 0 (no effect) to 100 (complete control), read-out: Foxtail, Giant plant response rating): 20%
- pest or weed control at 500 g/ha ([9]; Setaria faberi, post-emergence, 336 h, postemergence, 500 g ai/ha, scale 0 to 100, 0 is no effect, 100 is complete control, read-out: Foxtail, Giant plant response rating): 40%
- pest or weed control at 500 g/ha ([9]; Setaria faberi, pre-emergence, 336 h, 500 g ai/ha, visual rating, 0 = no effect, 100 = complete control, read-out: Plant response rating, Foxtail, Giant): 100%
- Plant response rating (0 to 100 scale), Pigweed [10, 16]: 100
- pest or weed control at 125 g/ha ([10]; Amaranthus retroflexus, post-emergence, 336 h, 125 g ai/ha, visual rating, scale 0 (no effect) to 100 (complete control), read-out: Pigweed plant response rating): 60%
- pest or weed control at 500 g/ha ([10]; Amaranthus retroflexus, post-emergence, 336 h, postemergence, 500 g ai/ha, scale 0 to 100, 0 is no effect, 100 is complete control, read-out: Pigweed plant response rating): 70%
- pest or weed control at 500 g/ha ([10]; Amaranthus retroflexus, pre-emergence, 336 h, 500 g ai/ha, visual rating, 0 = no effect, 100 = complete control, read-out: Plant response rating, Pigweed): 100%
- pest or weed control at 1000 g/ha ([11]; Cyperus difformis, 336 h, read-out: Sedge, Umbrella plant response rating): 80%
- pest or weed control at 1000 g/ha ([12]; Echinochloa crus-galli, 336 h, read-out: Barnyardgrass plant response rating): 90%
- pest or weed control at 125 g/ha ([13]; Alopecurus myosuroides, post-emergence, 336 h, 125 g ai/ha, visual rating, scale 0 (no effect) to 100 (complete control), read-out: Blackgrass plant response rating): 10%
- pest or weed control at 500 g/ha ([13]; Alopecurus myosuroides, post-emergence, 336 h, postemergence, 500 g ai/ha, scale 0 to 100, 0 is no effect, 100 is complete control, read-out: Blackgrass plant response rating): 20%
- plant injury at 1000 g/ha ([14]; Oryza sativa, 336 h, read-out: Rice plant response rating): 80%
- Plant response rating (0 to 100 scale), Barnyardgrass [15, 16]: 100
- pest or weed control at 125 g/ha ([15]; Echinochloa crus-galli, post-emergence, 125 g ai/ha, visual rating, scale 0 (no effect) to 100 (complete control), read-out: Barnyardgrass plant response rating): 10%
- pest or weed control at 500 g/ha ([15]; Echinochloa crus-galli, post-emergence, postemergence, 500 g ai/ha, scale 0 to 100, 0 is no effect, 100 is complete control, read-out: Barnyardgrass plant response rating): 30%
- pest or weed control at 500 g/ha ([15]; Echinochloa crus-galli, pre-emergence, 500 g ai/ha, visual rating, 0 = no effect, 100 = complete control, read-out: Plant response rating, Barnyardgrass): 100%

SMILES: CCn1nc(C(C)(C)C)cc1C(=O)Nc1cccc(S(=O)(=O)C(F)(F)F)c1 [Compound 134]
- Plant response rating, Surinam Grass [1, 17]: 50
- Surinam Grass plant response rating [1, 18]: 20
- Surinam Grass plant response rating [1, 19]: 40
- Plant response rating, Surinam Grass [1, 20]: 30
- Ducksalad plant response rating ([2]; visual rating, 13 to 15 days): 90
- Plant response rating, Lambsquarters [3, 17]: 100
- Lambsquarters plant response rating [3, 18]: 80
- Lambsquarters plant response rating [3, 19]: 90
- Plant response rating, Lambsquarters [3, 20]: 100
- Wheat plant response rating [4, 18]: 10
- Wheat plant response rating [4, 19]: 20
- Plant response rating, Velvetleaf [5, 17]: 90
- Velvetleaf plant response rating [5, 18]: 30
- Velvetleaf plant response rating [5, 19]: 40
- Plant response rating, Velvetleaf [5, 20]: 30
- Oat, Wild plant response rating [6, 18]: 30
- Oat, Wild plant response rating [6, 19]: 30
- Plant response rating, Morningglory [7, 17]: 20
- Morningglory plant response rating [7, 18]: 20
- Morningglory plant response rating [7, 19]: 40
- Plant response rating, Morningglory [7, 20]: 10
- Plant response rating, Cocklebur [8, 17]: 0
- Cocklebur plant response rating [8, 18]: 80
- Cocklebur plant response rating [8, 19]: 100
- Plant response rating, Cocklebur [8, 20]: 0
- Plant response rating, Foxtail, Giant [9, 17]: 70
- Foxtail, Giant plant response rating [9, 18]: 30
- Foxtail, Giant plant response rating [9, 19]: 40
- Plant response rating, Foxtail, Giant [9, 20]: 20
- Plant response rating, Pigweed [10, 17]: 100
- Pigweed plant response rating [10, 18]: 80
- Pigweed plant response rating [10, 19]: 90
- Plant response rating, Pigweed [10, 20]: 100
- Sedge, Umbrella plant response rating ([11]; visual rating, 13 to 15 days): 80
- Barnyardgrass plant response rating ([12]; visual rating, 13 to 15 days): 60
- Blackgrass plant response rating [13, 18]: 0
- Blackgrass plant response rating [13, 19]: 20
- Rice plant response rating ([14]; visual rating, 13 to 15 days): 60
- Plant response rating, Barnyardgrass [15, 17]: 80
- Barnyardgrass plant response rating [15, 18]: 20
- Barnyardgrass plant response rating [15, 19]: 40
- Plant response rating, Barnyardgrass [15, 20]: 50
